These results are taken from patent publication US11467151B1, “Phosphorescence oxygen analyzer and uses thereof” (priority 2021, dated 2022).

For the assay, the system named is striatal tissue. Kind of assay: Striatal cellular respiration (oxygen consumption of striatal fragments, phosphorescence oxygen analyzer). The assay is classed as cell-based, C57BL6 male mice. Particulars: for effect on striatal cellular respiration (in words): in vitro, viable striatal tissue; for time over which the inhibitory effects remained relatively stable: with glucose, repeated additions of toxin (FIG. 3B, FIG. 4B). The procedure: C57BL6 male mice (13 weeks old, about 20 g weight) were housed at 22° C. with 60% humidity and 12-h light-dark cycles. Rodent chow and filtered water were provided ad libitum. The study was approved from the UAE University Animal Research Ethics Committee (Ref. ERA-20196026). Diethyl ether was used for anesthesia.
The studied mice were not treated in any way prior to striatal tissue collection. The skin and skull were cut to expose the whole brain, which was then rapidly removed and placed in a freshly prepared Pd phosphor solution: Phosphate-buffered saline (PBS: 137 mM NaCl, 2.7 mM KCl, 4.3 mM Na2HPO4, and 1.4 mM KH2PO4, pH 7.4), 3.0 μM Pd phosphor, 0.5% fat-free albumin, with and without 5.0 mM glucose. The brain region that contained the striatum was dissected. The specimen weight was determined prior to placing it in the oxygen measuring vial that contained 2.0 mL of the Pd phosphor solution. A small portion of the specimen was stored at −80° C. for Western blot analysis.
For oxygen analysis, our previously described phosphorescence oxygen analyzer was used to monitor oxygen consumption at 25° C. in the studied striatal fragments. In reaction vials sealed from air, oxygen concentration decreased linearly with time (zero-order kinetics); the rate (k, in μM O2 min^−1) was thus the negative of d [O21/dt. The calibration reactions utilized glucose oxidase (D-glucose+O2→D-glucono-δ-lactone+H2O2) and […]. Dissolved oxygen in the solution was also depleted by the addition of glucose oxidase plus […]. Potassium cyanide (KCN, added from a stock prepared in dH2O immediately before use) inhibited respiration, confirming oxygen was consumed in cytochrome oxidase.

Regarding `C=C(C)[C@H]1Cc2c(ccc3c2O[C@@H]2COc4cc(OC)c(OC)cc4[C@@H]2C3=O)O1` [rotenone, Rotenone], the “effect on striatal cellular respiration (in words)” value was “inhibited” and the “time over which the inhibitory effects remained relatively stable” value was “about 100 min”. Under “10 μM rotenone, Pd phosphor solution with 5.0 mM glucose, 25° C., mean±SD, n=5, without toxin 0.141 (n=7), P=0.073”, the “rate of respiration (k) in the presence of rotenone” value was 0.092±0.022 μM O2 min^−1 mg^−1.

As to `C[n+]1ccc(-c2ccccc2)cc1.[I-]` [MPP+, 1-Methyl-4-phenylpyridinium iodide], the “effect on striatal cellular respiration (in words)” value is listed as “inhibited” and the “time over which the inhibitory effects remained relatively stable” value was “about 300 min”. In addition, the “rate of respiration (k) in the presence of MPP+” value (1.25 mM MPP+, Pd phosphor solution with 5.0 mM glucose, 25° C., n=3, p=0.048) worked out at 0.077±0.006 μM O2 min^−1 mg^−1.
